Article PMC3469757 (Journal of medicinal chemistry, 2012)
One block for each molecule: values may come before it.

Legend:
human TRPV1 [1] = target: T1, human TRPV1 (Homo sapiens, UniProt Q8NER1); test: Capsaicin assay; format: cell-based; details: for hTRPV1 antagonism in words / fold more potent than parent 2 for capsaicin antagonism / fold more potent than lead 3 for capsaicin antagonism: hTRPV1 in CHO cells; for fold more potent than lead 3 for capsaicin antagonism: versus compound 3
human TRPV1 [2] = target: T1, human TRPV1; test: pH assay; format: cell-based; details: for IC50: read-out: IC50 [pH], activator pH 6.0 to 6.3
[3] = system: panel of 135 other receptors and enzymes (CEREP); test: Selectivity panel; details: 10 µM
human TRPV1 [4] = target: T1, human TRPV1; test: [3H]resiniferatoxin binding; details: data not shown
[5] = system: CCI-induced cold allodynia in rats; test: Rat Bennett model of neuropathic pain; format: in vivo; details: po
male NMRI mice = test: Capsaicin induced hypothermia in mice; format: in vivo, mouse
C57BL/6J wild type mice = test: Body temperature in wild type mice; format: in vivo, mouse; details: 1 mg/kg oral, 45 min and 60 min post administration
TRPV1 knockout mice = test: Body temperature in TRPV1 knock-out mice; format: in vivo, mouse; details: 1 mg/kg oral

T1 sequence (Q8NER1 whole entry): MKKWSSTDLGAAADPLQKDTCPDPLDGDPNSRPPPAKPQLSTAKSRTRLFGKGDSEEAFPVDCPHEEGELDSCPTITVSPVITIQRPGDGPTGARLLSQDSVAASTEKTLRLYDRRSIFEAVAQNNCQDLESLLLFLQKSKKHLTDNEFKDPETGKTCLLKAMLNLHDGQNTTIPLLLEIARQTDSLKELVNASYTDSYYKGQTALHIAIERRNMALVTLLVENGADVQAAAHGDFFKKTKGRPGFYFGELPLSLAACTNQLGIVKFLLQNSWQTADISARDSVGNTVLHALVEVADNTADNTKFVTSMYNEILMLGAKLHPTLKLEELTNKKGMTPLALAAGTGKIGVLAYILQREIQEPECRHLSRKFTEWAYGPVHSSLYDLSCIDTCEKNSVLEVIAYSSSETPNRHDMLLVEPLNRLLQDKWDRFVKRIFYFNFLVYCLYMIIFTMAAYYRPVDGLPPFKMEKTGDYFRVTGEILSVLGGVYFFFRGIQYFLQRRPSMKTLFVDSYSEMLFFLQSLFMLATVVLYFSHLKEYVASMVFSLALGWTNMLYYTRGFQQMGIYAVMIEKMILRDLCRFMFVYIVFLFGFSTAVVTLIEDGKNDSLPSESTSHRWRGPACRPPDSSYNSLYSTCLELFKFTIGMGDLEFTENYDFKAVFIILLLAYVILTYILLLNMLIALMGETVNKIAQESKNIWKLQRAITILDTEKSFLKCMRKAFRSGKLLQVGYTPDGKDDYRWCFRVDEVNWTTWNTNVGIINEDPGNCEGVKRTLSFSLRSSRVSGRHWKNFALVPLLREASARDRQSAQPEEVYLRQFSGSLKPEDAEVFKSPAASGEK

Compound: CC(C(=O)NCc1ccc(C(F)(F)F)nc1)c1ccc(NS(C)(=O)=O)c(F)c1 (stereo not shown) [Compound 12, 2-(3-Fluoro-4-(methylsulfonamido)phenyl)-N-((6-(trifluoromethyl)pyridin-3-yl)methyl)propanamide]
hTRPV1 antagonism in words (human TRPV1 [1]): weak antagonist | IC50 (human TRPV1 [2]; hTRPV1 in CHO cells): > 10 µM

Compound: CC(C(=O)NCc1ccc(C(F)(F)F)nc1Nc1ccc(Cl)cc1)c1ccc(NS(C)(=O)=O)c(F)c1 (stereo not shown) [Compound 19, N-((2-((4-Chlorophenyl)amino)-6-(trifluoromethyl)pyridin-3-yl)methyl)-2-(3-fluoro-4-(methylsulfonamido)phenyl)propanamide]
hTRPV1 antagonism in words (human TRPV1 [1]): devoid of activity

Compound: CC(C(=O)NCc1ccc(C(F)(F)F)nc1N(C)c1ccccc1)c1ccc(NS(C)(=O)=O)c(F)c1 (stereo not shown) [Compound 32, 2-(3-Fluoro-4-(methylsulfonamido)phenyl)-N-((2-(methyl(phenyl)amino)-6-(trifluoromethyl)pyridin-3-yl)methyl)propanamide]
fold increase in potency for CAP compared to phenylamino analogue 17 (human TRPV1 [1]; versus compound 17): 75 fold | fold increase in potency for pH compared to phenylamino analogue 17 (human TRPV1 [2]; versus compound 17): 25 fold

Compound: CC(C)OC1CCN(c2nc(C(F)(F)F)ccc2CNC(=O)C(C)c2ccc(NS(C)(=O)=O)c(F)c2)CC1 (stereo not shown) [Compound 70, 2-(3-Fluoro-4-(methylsulfonamido)phenyl)-N-((2-(4-isopropoxypiperidin-1-yl)-6-(trifluoromethyl)pyridin-3-yl)methyl)propanamide]
IC50 (human TRPV1 [2]; hTRPV1 in CHO cells): > 10 µM

Compound: CC(C(=O)NCc1ccc(C(F)(F)F)nc1N1CCC(N2CCCCC2)CC1)c1ccc(NS(C)(=O)=O)c(F)c1 (stereo not shown) [Compound 75, N-((2-([1,4'-Bipiperidin]-1'-yl)-6-(trifluoromethyl)pyridin-3-yl)methyl)-2-(3-fluoro-4-(methylsulfonamido)phenyl)propanamide]
IC50 (human TRPV1 [2]; hTRPV1 in CHO cells): > 10 µM

Compound: CC(C(=O)NCc1ccc(C(F)(F)F)nc1N1CCC(N2CCCC2)CC1)c1ccc(NS(C)(=O)=O)c(F)c1 (stereo not shown) [Compound 76, 2-(3-Fluoro-4-(methylsulfonamido)phenyl)-N-((2-(4-(pyrrolidin-1-yl)piperidin-1-yl)-6-(trifluoromethyl)pyridin-3-yl)methyl)propanamide]
IC50 (human TRPV1 [2]; hTRPV1 in CHO cells): > 10 µM

Compound: CC(C(=O)NCc1ccc(C(F)(F)F)nc1N1CCN(C2CCCCC2)CC1)c1ccc(NS(C)(=O)=O)c(F)c1 (stereo not shown) [Compound 83, N-((2-(4-Cyclohexylpiperazin-1-yl)-6-(trifluoromethyl)pyridin-3-yl)methyl)-2-(3-fluoro-4-(methylsulfonamido)phenyl)propanamide]
IC50 (human TRPV1 [2]; hTRPV1 in CHO cells): > 10 µM

Compound: CC(C(=O)NCc1ccc(C(F)(F)F)nc1N1CCN(c2ccncc2)CC1)c1ccc(NS(C)(=O)=O)c(F)c1 (stereo not shown) [Compound 92, 2-(3-Fluoro-4-(methylsulfonamido)phenyl)-N-((2-(4-(pyridin-4-yl)piperazin-1-yl)-6-(trifluoromethyl)pyridin-3-yl)methyl)propanamide]
IC50 (human TRPV1 [2]; hTRPV1 in CHO cells): > 10 µM

Compound: CC(C(=O)NCc1ccc(C(F)(F)F)nc1N1CCN(c2ncccc2C(F)(F)F)CC1)c1ccc(NS(C)(=O)=O)c(F)c1 (stereo not shown) [Compound 95, 2-(3-Fluoro-4-(methylsulfonamido)phenyl)-N-((6-(trifluoromethyl)-2-(4-(3-(trifluoromethyl)pyridin-2-yl)piperazin-1-yl)pyridin-3-yl)methyl)propanamide]
IC50 (human TRPV1 [2]; hTRPV1 in CHO cells): > 10 µM

Compound: COc1cc(CNC(=O)CCCC/C=C/C(C)C)ccc1O [capsaicin, reference compound]
body temperature after capsaicin injection (male NMRI mice; 3 mg/kg intraperitoneal, 15 min post injection, from 37.1 ± 0.1 °C): 34.0 ± 0.1 °C

Continued, in another order:

fold more potent than parent 2 for capsaicin antagonism (human TRPV1 [1]; versus compound 2): 46 fold
Compound: CC(C(=O)NCc1ccc(C(F)(F)F)nc1N1CCCCC1)c1ccc(NS(C)(=O)=O)c(F)c1 (stereo not shown) [Compound 45, 2-(3-Fluoro-4-(methylsulfonamido)phenyl)-N-((2-(piperidin-1-yl)-6-(trifluoromethyl)pyridin-3-yl)methyl)propanamide]

fold more potent than lead 3 for capsaicin antagonism (human TRPV1 [1]): ca. 15 fold
Compound: C[C@H](C(=O)NCc1ccc(C(F)(F)F)nc1N1CCCCC1)c1ccc(NS(C)(=O)=O)c(F)c1 [Compound 45S, (S)-2-(3-Fluoro-4-(methylsulfonamido)phenyl)-N-((2-(piperidin-1-yl)-6-(trifluoromethyl)pyridin-3-yl)methyl)propanamide]

fold more potent than 2 over all four TRPV1 activators (human TRPV1 [1]; capsaicin, pH, heat (45°C) and NADA, versus compound 2): 140–660 fold | fold more potent than lead 3 for capsaicin antagonism (human TRPV1 [1]): ~20 fold | fold better than 2 for pH antagonism (human TRPV1 [2]; hTRPV1 in CHO cells, versus compound 2): 200 fold | number of targets not negative in selectivity panel [3]: 7 | number of targets with greater than 50% inhibition [3]: 3 | body temperature increase (C57BL/6J wild type mice): about 1.3 ± 0.1 °C | hyperthermic response (TRPV1 knockout mice): completely absent
Compound: CC1CCN(c2nc(C(F)(F)F)ccc2CNC(=O)[C@@H](C)c2ccc(NS(C)(=O)=O)c(F)c2)CC1 [Compound 49S, (S)-2-(3-Fluoro-4-(methylsulfonamido)phenyl)-N-((2-(4-methylpiperidin-1-yl)-6-(trifluoromethyl)pyridin-3-yl)methyl)propanamide]
inhibition of [3H]resiniferatoxin binding to human TRPV1 (human TRPV1 [4]): inhibited | side effects like sedation or decreased locomotion [5]: not observed | effect on capsaicin induced decrease of body temperature (male NMRI mice; 0.3 mg/kg oral, 15 min before 3 mg/kg ip capsaicin): completely inhibited

IC50 (human TRPV1 [2]; hTRPV1 in CHO cells): > 10 µM
Compound: CC(C(=O)NCc1ccc(C(F)(F)F)nc1N1CCC(O)CC1)c1ccc(NS(C)(=O)=O)c(F)c1 (stereo not shown) [Compound 65, 2-(3-Fluoro-4-(methylsulfonamido)phenyl)-N-((2-(4-hydroxypiperidin-1-yl)-6-(trifluoromethyl)pyridin-3-yl)methyl)propanamide]

hTRPV1 antagonism in words (human TRPV1 [1]): weak antagonist | IC50 (human TRPV1 [2]; hTRPV1 in CHO cells): > 10 µM
Compound: CC(C(=O)NCc1ccc(C(F)(F)F)nc1N1CCNCC1)c1ccc(NS(C)(=O)=O)c(F)c1 (stereo not shown) [Compound 81, 2-(3-Fluoro-4-(methylsulfonamido)phenyl)-N-((2-(piperazin-1-yl)-6-(trifluoromethyl)pyridin-3-yl)methyl)propanamide]

IC50 (human TRPV1 [2]; hTRPV1 in CHO cells): > 10 µM
Compound: CC(C(=O)NCc1ccc(C(F)(F)F)nc1N1CCN(C)CC1)c1ccc(NS(C)(=O)=O)c(F)c1 (stereo not shown) [Compound 82, 2-(3-Fluoro-4-(methylsulfonamido)phenyl)-N-((2-(4-methylpiperazin-1-yl)-6-(trifluoromethyl)pyridin-3-yl)methyl)propanamide]

fold more potent than parent 2 for capsaicin antagonism (human TRPV1 [1]; versus compound 2): 15 fold
Compound: CC(C(=O)NCc1ccc(C(F)(F)F)nc1N1CCOCC1)c1ccc(NS(C)(=O)=O)c(F)c1 (stereo not shown) [Compound 97, 2-(3-Fluoro-4-(methylsulfonamido)phenyl)-N-((2-morpholino-6-(trifluoromethyl)pyridin-3-yl)methyl)propanamide]

hTRPV1 antagonism in words (human TRPV1 [1]): only weak potency | IC50 (human TRPV1 [2]; hTRPV1 in CHO cells): > 10 µM
Compound: CC(C(=O)NCc1ccc(C(F)(F)F)nc1N1CCS(=O)(=O)CC1)c1ccc(NS(C)(=O)=O)c(F)c1 (stereo not shown) [Compound 99, N-((2-(1,1-Dioxidothiomorpholino)-6-(trifluoromethyl)pyridin-3-yl)methyl)-2-(3-fluoro-4-(methylsulfonamido)phenyl)propanamide]
